From the NIST ThermoML archive (doi:10.1016/j.fluid.2018.09.024)
± gives the expanded uncertainty stated by the source.

Assay: activity coefficient (dimensionless); of the first substance listed, at infinite dilution; xn = mol fraction of the nth substance listed
Settings: 358.15 K; 101.33 kPa; Liquid; Chromatography; x1 = 0
In the case of `CCC(=O)OC` [methyl propanoate] + CCCCCCCCCCCC[N+](C)(C)CCOc1ccccc1.O=S(=O)([N-]S(=O)(=O)C(F)(F)F)C(F)(F)F, the activity coefficient is reported as 0.633 ± 0.044.

Same assay, conditions: 368.15 K; 101.33 kPa; Liquid; Chromatography; x1 = 0
`C1CCCCCCC1` [cyclooctane] + CCCCCCCCCCCC[N+](C)(C)CCOc1ccccc1.O=S(=O)([N-]S(=O)(=O)C(F)(F)F)C(F)(F)F gave an activity coefficient of 2.75 ± 0.19. `CCCCCCCCCC` [decane] + CCCCCCCCCCCC[N+](C)(C)CCOc1ccccc1.N#C[N-]C#N gave an activity coefficient of 9.6 ± 0.65. Molecule `CCCCCCCCCC` [decane] + CCCCCCCCCCCC[N+](C)(C)CCOc1ccccc1.O=S(=O)([N-]S(=O)(=O)C(F)(F)F)C(F)(F)F has an activity coefficient of 6.03 ± 0.41. Molecule `CCOCC` [diethyl ether] + CCCCCCCCCCCC[N+](C)(C)CCOc1ccccc1.N#C[N-]C#N has an activity coefficient of 2.39 ± 0.16. In the case of `CCOCC` [diethyl ether] + CCCCCCCCCCCC[N+](C)(C)CCOc1ccccc1.O=S(=O)([N-]S(=O)(=O)C(F)(F)F)C(F)(F)F, the activity coefficient is reported as 1.36 ± 0.09. Work on `CC(C)OC(C)C` [diisopropyl ether] + CCCCCCCCCCCC[N+](C)(C)CCOc1ccccc1.N#C[N-]C#N yielded an activity coefficient of 4.36 ± 0.3. `CC(C)OC(C)C` [diisopropyl ether] + CCCCCCCCCCCC[N+](C)(C)CCOc1ccccc1.O=S(=O)([N-]S(=O)(=O)C(F)(F)F)C(F)(F)F showed an activity coefficient of 2.22 ± 0.15. `CCCOCCC` [dipropyl ether] + CCCCCCCCCCCC[N+](C)(C)CCOc1ccccc1.N#C[N-]C#N showed an activity coefficient of 3.68 ± 0.25. For `CCCOCCC` [dipropyl ether] + CCCCCCCCCCCC[N+](C)(C)CCOc1ccccc1.O=S(=O)([N-]S(=O)(=O)C(F)(F)F)C(F)(F)F, the activity coefficient was 2.13 ± 0.14. Work on `CCO` [ethanol] + CCCCCCCCCCCC[N+](C)(C)CCOc1ccccc1.N#C[N-]C#N yielded an activity coefficient of 0.446 ± 0.036. For `CCO` [ethanol] + CCCCCCCCCCCC[N+](C)(C)CCOc1ccccc1.O=S(=O)([N-]S(=O)(=O)C(F)(F)F)C(F)(F)F, the activity coefficient was 1.06 ± 0.07. For `CCOC(C)=O` [ethyl acetate] + CCCCCCCCCCCC[N+](C)(C)CCOc1ccccc1.N#C[N-]C#N, the activity coefficient was 1.34 ± 0.09. `CCOC(C)=O` [ethyl acetate] + CCCCCCCCCCCC[N+](C)(C)CCOc1ccccc1.O=S(=O)([N-]S(=O)(=O)C(F)(F)F)C(F)(F)F gave an activity coefficient of 0.648 ± 0.044. `CCc1ccccc1` [ethylbenzene] + CCCCCCCCCCCC[N+](C)(C)CCOc1ccccc1.N#C[N-]C#N gave an activity coefficient of 1.6 ± 0.11. In the case of `CCc1ccccc1` [ethylbenzene] + CCCCCCCCCCCC[N+](C)(C)CCOc1ccccc1.O=S(=O)([N-]S(=O)(=O)C(F)(F)F)C(F)(F)F, the activity coefficient is reported as 1.13 ± 0.07. In the case of `CCCCCCC` [heptane] + CCCCCCCCCCCC[N+](C)(C)CCOc1ccccc1.N#C[N-]C#N, the activity coefficient is reported as 6.33 ± 0.43. `CCCCCCC` [heptane] + CCCCCCCCCCCC[N+](C)(C)CCOc1ccccc1.O=S(=O)([N-]S(=O)(=O)C(F)(F)F)C(F)(F)F gave an activity coefficient of 3.83 ± 0.26. Molecule `C=CCCCC` [hex-1-ene] + CCCCCCCCCCCC[N+](C)(C)CCOc1ccccc1.N#C[N-]C#N has an activity coefficient of 3.9 ± 0.27. With `C=CCCCC` [hex-1-ene] + CCCCCCCCCCCC[N+](C)(C)CCOc1ccccc1.O=S(=O)([N-]S(=O)(=O)C(F)(F)F)C(F)(F)F the activity coefficient was 2.41 ± 0.16. `CCCCCC` [hexane] + CCCCCCCCCCCC[N+](C)(C)CCOc1ccccc1.N#C[N-]C#N gave an activity coefficient of 5.53 ± 0.38. `CCCCCC` [hexane] + CCCCCCCCCCCC[N+](C)(C)CCOc1ccccc1.O=S(=O)([N-]S(=O)(=O)C(F)(F)F)C(F)(F)F gave an activity coefficient of 3.28 ± 0.22. Molecule `CC(C)c1ccccc1` [isopropylbenzene] + CCCCCCCCCCCC[N+](C)(C)CCOc1ccccc1.N#C[N-]C#N has an activity coefficient of 2.05 ± 0.14. With `CC(C)c1ccccc1` [isopropylbenzene] + CCCCCCCCCCCC[N+](C)(C)CCOc1ccccc1.O=S(=O)([N-]S(=O)(=O)C(F)(F)F)C(F)(F)F the activity coefficient was 1.39 ± 0.09. Molecule `CO` [methanol] + CCCCCCCCCCCC[N+](C)(C)CCOc1ccccc1.N#C[N-]C#N has an activity coefficient of 0.346 ± 0.032. With `CO` [methanol] + CCCCCCCCCCCC[N+](C)(C)CCOc1ccccc1.O=S(=O)([N-]S(=O)(=O)C(F)(F)F)C(F)(F)F the activity coefficient was 0.964 ± 0.061. Work on `CCCC(=O)OC` [methyl butanoate] + CCCCCCCCCCCC[N+](C)(C)CCOc1ccccc1.N#C[N-]C#N yielded an activity coefficient of 1.46 ± 0.1. With `CCCC(=O)OC` [methyl butanoate] + CCCCCCCCCCCC[N+](C)(C)CCOc1ccccc1.O=S(=O)([N-]S(=O)(=O)C(F)(F)F)C(F)(F)F the activity coefficient was 0.741 ± 0.049. For `COC(C)=O` [methyl ethanoate] + CCCCCCCCCCCC[N+](C)(C)CCOc1ccccc1.N#C[N-]C#N, the activity coefficient was 1.14 ± 0.07. Molecule `COC(C)=O` [methyl ethanoate] + CCCCCCCCCCCC[N+](C)(C)CCOc1ccccc1.O=S(=O)([N-]S(=O)(=O)C(F)(F)F)C(F)(F)F has an activity coefficient of 0.628 ± 0.043. `CCC(=O)OC` [methyl propanoate] + CCCCCCCCCCCC[N+](C)(C)CCOc1ccccc1.N#C[N-]C#N gave an activity coefficient of 1.25 ± 0.08. With `CCC(=O)OC` [methyl propanoate] + CCCCCCCCCCCC[N+](C)(C)CCOc1ccccc1.O=S(=O)([N-]S(=O)(=O)C(F)(F)F)C(F)(F)F the activity coefficient was 0.669 ± 0.045.

Same assay, conditions: 378.15 K; 101.33 kPa; Liquid; Chromatography; x1 = 0
`CCCCCCCCCC` [decane] + CCCCCCCCCCCC[N+](C)(C)CCOc1ccccc1.N#C[N-]C#N gave an activity coefficient of 9.75 ± 0.67. For `CCOCC` [diethyl ether] + CCCCCCCCCCCC[N+](C)(C)CCOc1ccccc1.N#C[N-]C#N, the activity coefficient was 2.44 ± 0.17. For `CC(C)OC(C)C` [diisopropyl ether] + CCCCCCCCCCCC[N+](C)(C)CCOc1ccccc1.N#C[N-]C#N, the activity coefficient was 4.43 ± 0.3. Molecule `CCCOCCC` [dipropyl ether] + CCCCCCCCCCCC[N+](C)(C)CCOc1ccccc1.N#C[N-]C#N has an activity coefficient of 3.76 ± 0.26. Work on `CCO` [ethanol] + CCCCCCCCCCCC[N+](C)(C)CCOc1ccccc1.N#C[N-]C#N yielded an activity coefficient of 0.453 ± 0.036. For `CCOC(C)=O` [ethyl acetate] + CCCCCCCCCCCC[N+](C)(C)CCOc1ccccc1.N#C[N-]C#N, the activity coefficient was 1.37 ± 0.09. `CCc1ccccc1` [ethylbenzene] + CCCCCCCCCCCC[N+](C)(C)CCOc1ccccc1.N#C[N-]C#N showed an activity coefficient of 1.64 ± 0.11. With `CCCCCCC` [heptane] + CCCCCCCCCCCC[N+](C)(C)CCOc1ccccc1.N#C[N-]C#N the activity coefficient was 6.41 ± 0.44. Molecule `C=CCCCC` [hex-1-ene] + CCCCCCCCCCCC[N+](C)(C)CCOc1ccccc1.N#C[N-]C#N has an activity coefficient of 3.99 ± 0.27. `CCCCCC` [hexane] + CCCCCCCCCCCC[N+](C)(C)CCOc1ccccc1.N#C[N-]C#N showed an activity coefficient of 5.6 ± 0.38. `CC(C)c1ccccc1` [isopropylbenzene] + CCCCCCCCCCCC[N+](C)(C)CCOc1ccccc1.N#C[N-]C#N gave an activity coefficient of 2.11 ± 0.14. For `CO` [methanol] + CCCCCCCCCCCC[N+](C)(C)CCOc1ccccc1.N#C[N-]C#N, the activity coefficient was 0.353 ± 0.032. In the case of `CCCC(=O)OC` [methyl butanoate] + CCCCCCCCCCCC[N+](C)(C)CCOc1ccccc1.N#C[N-]C#N, the activity coefficient is reported as 1.5 ± 0.1. Work on `COC(C)=O` [methyl ethanoate] + CCCCCCCCCCCC[N+](C)(C)CCOc1ccccc1.N#C[N-]C#N yielded an activity coefficient of 1.17 ± 0.07. `CCC(=O)OC` [methyl propanoate] + CCCCCCCCCCCC[N+](C)(C)CCOc1ccccc1.N#C[N-]C#N gave an activity coefficient of 1.28 ± 0.08.
